Assay results published in patent publication US20070270421A1, “Novel pyridine Derivative and Pyrimidine Derivative (1)” (priority 2004, published 2007).

Target: T1, HGFR (His6-HGFR cytoplasmic domain) (Homo sapiens, UniProt P08581)
T1 construct: made in house; host or cells: Spodoptera frugiperda Sf9 insect cells (baculovirus, pFastBac-HT)
Assay: Inhibitory activity against HGFR tyrosine kinase activity (HTRF)
Format: biochemical
Details: biotin-poly(GT), ATP, 30° C. 10 min, read-out: IC50 (concentration necessary to inhibit HGFR kinase activity by 50%)
How it was run: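 Baculovirus/Sf9-expressed N-terminal His6-tagged HGFR cytoplasmic domain (from Lys974), Ni-NTA purified, phosphorylated biotin-poly(GT) in Hepes pH 7.4 with MgCl2/MnCl2. ATP added as 4 μM solution; 10 min at 30° C., stopped with EDTA. Phosphotyrosine product detected by HTRF.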

T1 sequence (P08581 956-1390 limits assumed): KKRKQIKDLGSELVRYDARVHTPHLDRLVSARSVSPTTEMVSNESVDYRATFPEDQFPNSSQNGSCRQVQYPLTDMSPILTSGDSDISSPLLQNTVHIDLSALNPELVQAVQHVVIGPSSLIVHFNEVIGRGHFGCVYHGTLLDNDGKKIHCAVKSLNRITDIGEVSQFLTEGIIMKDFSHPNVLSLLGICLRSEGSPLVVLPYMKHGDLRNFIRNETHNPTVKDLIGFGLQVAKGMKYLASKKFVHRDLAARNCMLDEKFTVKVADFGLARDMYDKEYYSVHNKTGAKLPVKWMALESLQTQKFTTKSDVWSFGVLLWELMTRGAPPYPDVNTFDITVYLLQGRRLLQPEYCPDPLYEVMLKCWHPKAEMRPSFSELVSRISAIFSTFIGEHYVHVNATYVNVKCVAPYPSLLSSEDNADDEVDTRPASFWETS

SMILES	IC50 [nM]
CN1CCC(N2CCN(C(=O)Nc3cc(Oc4ccc(NC(=O)NC(=O)Cc5ccccc5)cc4F)ccn3)CC2)CC1 [Example 341, 4-{2-Fluoro-4-[3-(2-phenylacetyl)ureido]phenoxy}-2-{[4-(1-methylpiperidin-4-yl)piperazin-1-yl]carbonylamino}pyridine]	100
CN(C)CC1CCN(C(=O)Nc2cc(Oc3ccc(NC(=O)NC(=O)Cc4ccccc4)cc3F)ccn2)CC1 [Example 342, 2-{[4-(Dimethylaminomethyl)piperidin-1-yl]carbonylamino}-4-{2-fluoro-4-[3-(2-phenylacetyl)ureido]phenoxy}pyridine]	59
CN(C)CCN1CCC(N(C)C(=O)Nc2cc(Oc3ccc(NC(=O)NC(=O)Cc4ccc(F)cc4)cc3)ccn2)CC1 [Example 354, 1-[1-(2-Dimethylaminoethyl)piperidin-4-yl]-3-[4-(4-{3-[2-(4-fluorophenyl)acetyl]ureido}phenoxy)pyridin-2-yl]-1-methylurea]	160
O=C(Cc1ccccc1)NC(=S)Nc1ccc(Oc2ccnc(NC(=O)N3CCC(N4CCOCC4)CC3)c2)c(F)c1 [Example 258, 4-{2-Fluoro-4-[3-(2-phenylacetyl)thioureido]phenoxy}-2-{[4-(morpholin-4-yl)piperidin-1-yl]carbonylamino}pyridine]	100
O=C(Cc1ccccc1)NC(=S)Nc1ccc(Oc2cc(NC(=O)N3CCC(N4CCCC4)CC3)ncn2)c(F)c1 [Example 8, 4-(Pyrrolidin-1-yl)piperidine-1-carboxylic acid {6-[2-fluoro-4-(3-phenylacetylthioureido)phenoxy]pyrimidin-4-yl}amide]	83
CN1CCC[C@H](N(C)C(=O)Nc2cc(Oc3ccc(NC(=S)NC(=O)Cc4ccc(F)cc4)cc3F)ncn2)C1 [Example 322, 3-[6-(2-Fluoro-4-{3-[2-(4-fluorophenyl)acetyl]thioureido}phenoxy)pyrimidin-4-yl]-1-methyl-1-[(3S)-1-methylpiperidin-3-yl]urea]	43
CN(C)C(=O)Nc1cc(Oc2ccc(NC(=O)NC(=O)Cc3ccc(F)cc3)cc2F)ncn1 [Example 51, 3-[6-(2-Fluoro-4-{3-[2-(4-fluorophenyl)acetyl]ureido}phenoxy)pyrimidin-4-yl]-1,1-dimethylurea]	18
Cc1cc(Oc2ccnc(NC(=O)N(C)C)c2)ccc1NC(=O)CC(=O)Nc1ccc(F)cc1 [Example 86, N-{4-[2-(3,3-Dimethylureido)pyridin-4-yloxy]-2-methylphenyl}-N′-(4-fluorophenyl)malonamide]	55
O=C(Cc1ccc(F)cc1)NC(=S)Nc1ccc(Oc2cc(NC(=O)N3CCC(CN4CCCC4)CC3)ncn2)c(F)c1 [Example 349, 4-(Pyrrolidin-1-ylmethyl)piperidine-1-carboxylic acid [6-(2-fluoro-4-{3-[2-(4-fluorophenyl)acetyl]thioureido}phenoxy)pyrimidin-4-yl]amide]	87
O=C(CC(=O)NC1CCCCCC1)Nc1ccc(Oc2ccnc(NC(=O)N3CCCC3)c2)c(F)c1 [Example 61, N-Cycloheptyl-N′-(3-fluoro-4-{2-[(pyrrolidine-1-carbonyl)amino]pyridin-4-yloxy}phenyl)malonamide]	< 30
CN(C)CCN1CCC(N(C)C(=O)Nc2cc(Oc3ccc(NC(=S)NC(=O)Cc4ccc(F)cc4)c(F)c3)ccn2)CC1 [Example 183]	160
CN(C)[C@@H]1CCN(C(=O)Nc2cc(Oc3ccc(NC(=S)NC(=O)Cc4ccccc4)cc3F)ccn2)C1 [Example 245, 2-{[(3R)-3-Dimethylaminopyrrolidin-1-yl]carbonylamino}-4-{2-fluoro-4-[3-(2-phenylacetyl)thioureido]phenoxy}pyridine]	81
O=C(CC(=O)Nc1ccc(Oc2ccnc(NC(=O)N3CCC(N4CCCCC4)CC3)c2)cc1F)Nc1ccc(F)cc1 [Example 78, N-(4-Fluorophenyl)-N′-{2-fluoro-4-[({[4-(piperidin-1-yl)piperidin-1-yl]carbonyl}amino)pyridin-4-yloxy]phenyl}malonamide]	130

Continued, values first:

IC50 [nM]	SMILES
82	CCN(CC)CCCN(C)C(=O)Nc1cc(Oc2ccc(NC(=O)CC(=O)Nc3ccc(F)cc3)c(F)c2)ccn1 [Example 83]
110	CN(C)C1CN(C2CCN(C(=O)Nc3cc(Oc4ccc(NC(=S)NC(=O)Cc5ccc(F)cc5)c(F)c4)ccn3)CC2)C1 [Example 189, 4-[3-(Dimethylamino)azetidin-1-yl]piperidine-1-carboxylic acid [4-(3-fluoro-4-{3-[2-(4-fluorophenyl)acetyl]thioureido}phenoxy)pyridin-2-yl]amide]
64	O=C(Cc1ccc(F)cc1)NC(=S)Nc1ccc(Oc2cc(NC(=O)N3CCC(N4CCC4)CC3)ncn2)c(F)c1 [Example 172, 4-(Azetidin-1-yl)piperidine-1-carboxylic acid [6-(2-fluoro-4-{3-[2-(4-fluorophenyl)acetyl]thioureido}phenoxy)pyrimidin-4-yl]amide]
120	CN1CCN(C2CCN(C(=O)Nc3cc(Oc4ccc(NC(=O)NC(=O)Cc5ccc(F)cc5)cc4F)ccn3)CC2)CC1 [Example 343, 4-(2-Fluoro-4-{3-[2-(4-fluorophenyl)acetyl]ureido}phenoxy)-2-{[4-(1-methylpiperazin-4-yl)piperidin-1-yl]carbonylamino}pyridine]
60	O=C(Cc1ccc(F)cc1)NC(=S)Nc1ccc(Oc2ccnc(NC(=O)N3CCC(N4CCC(O)CC4)CC3)c2)cc1 [Example 190, 2-{[4-(4-Hydroxypiperidin-1-yl)piperidin-1-yl]carbonylamino}-4-(4-{3-[2-(4-fluorophenyl)acetyl]thioureido}phenoxy)pyridine]
16	CN(C(=O)Nc1cc(Oc2ccc(NC(=S)NC(=O)Cc3ccc(F)cc3)cc2F)ncn1)C1CCOCC1 [Example 288, 3-[6-(2-Fluoro-4-{3-[2-(4-fluorophenyl)acetyl]thioureido}phenoxy)pyrimidin-4-yl]-1-methyl-1-(tetrahydropyran-4-yl)urea]
110	CN(C)C[C@@H]1CCCN(C(=O)Nc2cc(Oc3ccc(NC(=S)NC(=O)Cc4ccccc4)cc3F)ccn2)C1 [Example 335, (3S)-3-Dimethylaminomethylpiperidine-1-carboxylic acid {4-[2-fluoro-4-(3-phenylacetylthioureido)phenoxy]pyridin-2-yl}amide]
200	O=C(Cc1ccccc1)NC(=S)Nc1ccc(Oc2ccnc(NC(=O)N3CCC3)c2)cc1Cl [Example 100, Azetidine-1-carboxylic acid {4-[3-chloro-4-(3-phenylacetylthioureido)phenoxy]pyridin-2-yl}amide]
210	CCN(CC)CCCN(C)C(=O)Nc1cc(Oc2ccc(NC(=O)NC(=O)Cc3ccccc3)cc2F)ccn1 [Example 49, 1-(3-Diethylaminopropyl)-3-{4-[2-fluoro-4-(3-phenylacetylureido)phenoxy]pyridin-2-yl}-1-methylurea]
93	CN1CCN(CCCN(C)C(=O)Nc2cc(Oc3ccc(NC(=O)CC(=O)Nc4ccc(F)cc4)c(F)c3)ccn2)CC1 [Example 93, N-[2-Fluoro-4-(2-{3-methyl-3-[3-(4-methylpiperazin-1-yl)propyl]ureido}pyridin-4-yloxy)phenyl]-N′-(4-fluorophenyl)malonamide]
65	CN(C)C[C@H]1CCN(C(=O)Nc2cc(Oc3ccc(NC(=S)NC(=O)Cc4ccc(F)cc4)cc3F)ncn2)C1 [Example 209, 4-{[(3R)-3-(Dimethylaminomethyl)pyrrolidin-1-yl]carbonylamino}-6-(2-fluoro-4-{3-[2-(4-fluorophenyl)acetyl]thioureido}phenoxy)pyrimidine]
84	CN1CC(N2CCC(N(C)C(=O)Nc3cc(Oc4ccc(NC(=S)NC(=O)Cc5ccc(F)cc5)cc4)ccn3)CC2)C1 [Example 331, 3-(4-{4-[3-(4-Fluorophenyl)acetylthioureido]phenoxy}pyridin-2-yl)-1-methyl-1-[1-(1-methylazetidin-3-yl)piperidin-4-yl]urea]
130	CN1CCC(N2CCN(C(=O)Nc3cc(Oc4ccc(NC(=S)NC(=O)Cc5ccccc5)cc4F)ccn3)CC2)CC1 [Example 326, 4-{2-Fluoro-4-[3-(2-phenylacetyl)thioureido]phenoxy}-2-{[4-(1-methylpiperidin-4-yl)piperazin-1-yl]carbonylamino}pyridine]
67	O=C(CC(=O)Nc1ccc(Oc2ccnc(NC(=O)N3CCCC3)c2)c(Cl)c1)Nc1ccc(F)cc1 [Example 67, N-(3-Chloro-4-{2-[(pyrrolidine-1-carbonyl)amino]pyridin-4-yloxy}phenyl)-N′-(4-fluorophenyl)malonamide]
120	CN1CCC(N2CCN(C(=O)Nc3cc(Oc4ccc(NC(=O)NC(=O)Cc5ccc(F)cc5)cc4F)ccn3)CC2)CC1 [Example 345, 4-(2-Fluoro-4-{3-[2-(4-fluorophenyl)acetyl]ureido}phenoxy)-2-{[4-(1-methylpiperidin-4-yl)piperazin-1-yl]carbonylamino}pyridine]
130	CN1CCC(N(C)C(=O)Nc2cc(Oc3ccc(NC(=O)NC(=O)Cc4ccc(F)cc4)c(F)c3)ccn2)CC1 [Example 290, 3-[4-(3-Fluoro-4-{3-[2-(4-fluorophenyl)acetyl]ureido}phenoxy)pyridin-2-yl]-1-methyl-1-(1-methylpiperidin-4-yl)urea]
55	O=C(Cc1ccccc1)NC(=S)Nc1ccc(Oc2ccnc(NC(=O)N3CCN(CCN4CCC4)CC3)c2)c(F)c1 [Example 397, 4-[2-(Azetidin-1-yl)ethyl]piperazine-1-carboxylic acid {4-[2-fluoro-4-(3-phenylacetylthioureido)phenoxy]pyridin-2-yl}amide]
77	CN1CCN(C2CCN(C(=O)Nc3cc(Oc4ccc(NC(=O)NC(=O)Cc5ccccc5)cc4F)ccn3)CC2)CC1 [Example 340, 4-{2-Fluoro-4-[3-(2-phenylacetyl)ureido]phenoxy}-2-{[4-(1-methylpiperazin-4-yl)piperidin-1-yl]carbonylamino}pyridine]
